ChEMBL document CHEMBL1153899, “Discovery of benzothiazole derivatives as efficacious and enterocyte-specific MTP inhibitors” (Bioorg Med Chem Lett, 2009)
Active and inactive are the calls of the source. No cut-off for these calls is given here.

Assays:
Mus musculus [1] = assay: Increase in peptide YY level in 3-day high fat diet fed C57BL/6 mouse at 10 mg/kg, po daily for 3 days; format: functional, organism-based; set-up: dose 10 mg/kg
Mus musculus [2] = assay: Decrease in plasma triglyceride level in […] C57BL/6 mouse at 10 mg/kg, po daily for 3 days measured after 6 hrs; format: functional
HepG2 = assay: Inhibition of apoB secretion in human HepG2 cells after 40 hrs by ELISA; format: functional, cell-based; conditions: HepG2, 40 h
[3] = Inhibition of MTP from dog liver microsomes by scintillation counting; set-up: species or system Canis lupus familiaris, Microsome
Mus musculus [4] = assay: Decrease in total food intake in 3-day high fat diet fed C57BL/6 mouse at 10 mg/kg, po daily for 3 days; format: functional
Mus musculus [5] = assay: Decrease in body weight in […] at 10 mg/kg, po daily for 3 days; format: functional, C57BL/6

IC50 (HepG2): 4 nM | IC50 [3]: 4.6 nM
Structure (SMILES): CN(Cc1ccc(F)cc1)C(=O)[C@@H](NC(=O)c1nc2ccc(NC(=O)c3ccccc3-c3nc(C(C)(C)C)cs3)cc2s1)c1ccccc1
Activity (Mus musculus [1]): inactive | Activity (Mus musculus [2]): inactive | Activity (Mus musculus [4]): inactive | Activity (Mus musculus [5]): inactive
